Laboratory results reported in patent US20050282745A1, “Non-mammalian GnRH analogs and uses thereof in regulation of fertility and pregnancy” (priority 2001, published 2005).

Columns and labels:
[1] = test system: chorionic peptidase-1 (C-ase-1); experiment: C-ase-1 enzyme activity assay, competition for degradation of GnRH; details: Lineweaver-Burke plot
Description: (§1) Using the incubation system developed for the C-ase-1 activity, the degradation of each analog was tested. […] These studies were done using the C-ase-1 enzyme activity assay as described previously. […] The product formed was calculated by subtraction, and its inverse plotted against the inverse of the original substrate concentrations to determine the nature of the competition. The Ki was to be determined by plotting the inverse of the product that formed verses the inhibitor used.
(§2) The concentration of the product of the degraded GnRH was quantified by subtracting the remaining mammalian GnRH from the starting concentrations of mammalian GnRH. […] The Ks for the degradation of mammalian GnRH was calculated from the x axis intercept using Lineweaver-Burke double reciprocal plot of the concentration of the product formed versus the concentration of the substrate used.
(§3) The reaction was stopped by heating at 85° C. for 10 minutes. The remaining GnRH was determined using a specific radioimmunoassay. The formation of product, i.e., the N-terminal nonapeptide of GnRH, was calculated by subtraction and its inverse was plotted versus the inverse of the initial substrate to determine the Ks of the reaction. […] The relative potency of each analog was compared.
(§4) Using the incubation system developed for the C-ase-1 activity, the degradation of each analog was studied. […] The inverse of the product was plotted against the inverse of the original substrate concentrations to determine Ks of the competition. The Ki was determined by plotting the inverse of the product formed verses the inhibitor used.

[2] = test system: human term placental explants; experiment: Static explant culture, release of hCG, progesterone, PGE2; format: cell-based; details: 0.25-1.00 μM, four placentas
From the text: The biological activity of the newly synthesized non-mammalian GnRH analogs was studied using a static implant culture system. This system allows for inexpensive extended activity studies. Mammalian GnRH action on the human placenta release of hCG, progesterone and prostaglandins were defined using this system. Replicate cultures were studied, thus allowing for comparison of different doses of each non-mammalian GnRH analog to mammalian GnRH (SEQ ID NO: 5), as well as direct competition assays. […] These studies were repeated using different human placentas. Siler-Khodr T M, Khodr G S, Valenzuela G, Rhode J 1986 Gonadotropin-releasing hormone effects on placental hormones during gestation: II. Progesterone, estrone, estradiol and estriol. Biol Reprod 34:255-264; Siler-Khodr T M, Khodr G S, Valenzuela G, Rhode J 1986 Gonadotropin-releasing hormone effects on placental hormones during gestation: 1 Alpha-human chorionic gonadotropin, human chorionic gonadotropin and human chorionic somatomammotropin. Biol Reprod 34:245-254; Siler-Khodr T M, Khodr G S, Valenzuela G, Harper J, Rhode J 1986 GnRH effects on placental hormones during gestation. 111 Prostaglandin E, prostaglandin F, and 13, 14-dihydro-15-keto-prostaglandin F. Biol Reprod 35:312-319.
In these and additional studies, an explant culture system was used to determine the effect of mammalian GnRH (SEQ ID NO: 5), chicken II GnRH (SEQ ID NO: 6), or the D-Arg(6)-chicken II GnRH-aza-Gly(10)-amide analog (SEQ ID NO: 2) on the release of the hCG, progesterone, and prostaglandin E2. Human term placentas were dissected free of membranes, minced into fragments of 5 mm, rinsed in medium, and a total weight of ˜100 mg (20 explants) was placed on a sterile filter paper resting on an organ culture grid such that they touched the surface of the culture medium, but were not immersed in it. The medium contained penicillin, streptomycin, and fungizone at 100 U/mL, 100 μg/mL, and 2.5 μg/mL respectively with and without varying doses of GnRH isoforms or analogs was added to each Petri dish. Triplicate chambers for each media were made and incubated at 37 C in a humidified chamber with an atmosphere of 5% CO2 and 95% air. Spent media were collected and replaced after 2 hours, 24 hours, and 48 hour of culture and stored frozen at −20° C. until assayed for hormones. HCG, progesterone, and PGE2 were measured using specific double antibody procedures as described previously. The chicken II GnRH analog (SEQ ID NO: 2) was studied using four different human term placentas, and the native chicken II GnRH isoform was also studied using one human term placenta. Gibbons J M, Mitnick M, Chieffo V 1975 In vitro biosynthesis, of TSH- and LH-releasing factors by the human placenta. Am J Obstet Gynecol 121:127-131.

[3] = target: human placental GnRH receptor; experiment: Placental GnRH receptor binding, 125I-Buserelin label; details: 125I-Buserelin, Example VI; read-out: Kd
Description: The newly synthesized non-mammalian GnRH analogs and other commercially available mammalian GnRH analogs were used in placental receptors binding and enzyme stability study described here. […] GnRH receptors were purified from the membrane fractions from placentas. The purification procedure for the placental GnRH receptor was performed using a modification of the method described by Bramley et al., which reference is specifically incorporated herein by reference for the purpose. Addition of enzyme inhibitors for the endogenous C-ase-1 were used as well as agents for receptor stabilization. Initially, receptor-binding assays using ^125I-Buserelin as label were performed. The competitive binding of each of the analogs was studied over a dose range of 10^−11 to 10^−6 M. Incubation was at room temperature and receptor bound label was precipitated with polyethylene glycol. Specific and non-specific binding was determined. The data was subjected to Scatchard analysis. The non-mammalian GnRH analogs' ability to bind to the placental GnRH receptor was compared to that for synthetic mammalian GnRH (SEQ ID NO: 5), Buserelin (SEQ ID NO: 10) and other mammalian analogs. […] This way, the receptor affinity for that analog could be precisely determined. Receptors from three different term placentas were used to study each of these analogs. […] Bramley T A, McPhie C A, Menzies G S 1994 Human placental gonadotropin-releasing hormone (GnRH) binding sites: 111. […] Placenta 15:733-745.
In these and additional studies, placental GnRH receptors were purified from human term placentas after homogenization in 40 mM Tris (pH 7.4) and filtered through cheesecloth, followed by an initial centrifugation at 1,000×g for 10 minutes. The resulting supernatant was, again, centrifuged at 35,000×g for 30 minutes and the membrane pellet was collected and resuspended in Tris buffer with 0.3 M sucrose. The protein concentration was determined. Membranes were stored frozen at −20 C until use. Before use, placental membranes were diluted to 5,000 μg/mL with Tris buffer containing 0.5% BSA and 50 U/mL bacitracin. […] Following incubation at room temperature for 4 hours, the bound and free hormones were separated using polyethylene glycol precipitation, followed by centrifugation. The binding affinity for each GnRH isoform or analog was calculated using the double reciprocal plot of bound versus free ligand. Each study was done using three different human term placental tissues.
Receptor assays were performed by incubating human term placental GnRH receptors with varying concentrations of GnRH or its analogs in the presence of ^125I-Buserelin. The reaction was stopped and the bound hormone precipitated with polyethylene glycol.

[4] = test system: chorionic peptidase-1 (C-ase-1); details: neutral pH; read-out: Km for degradation by C-ase-1; cited from earlier work
[5] = test system: baboon ovarian enzymatic activity
Description: In these studies the enzyme was in the ovarian extract.
In this assay, following incubation of the enzyme and GnRH, with and without the chosen analog, the reaction was stopped by heating and the remaining GnRH substrate was quantified by radioimmunoassay. The product formed is calculated by subtraction, and its inverse plotted against the inverse of the original substrate concentrations to determine the nature of the competition. The Ki was determined by plotting the inverse of the product formed versus the inhibitor used.

[6] = test system: chorionic peptidase-1 (C-ase-1)
Description: as §1, §2, §3, §4

[7] = test system: human placental GnRH receptor; experiment: Placental GnRH receptor binding, radiolabeled D-Arg(6)-chicken II GnRH-aza-Gly(10)-amide label; details: versus Buserelin label
Description: The newly synthesized non-mammalian GnRH analogs and other commercially available mammalian GnRH analogs were used in placental receptors binding and enzyme stability study described here. On the basis of these studies, the most receptor potent and enzyme-stable analogs were chosen for further biopotency studies. GnRH receptors were purified from the membrane fractions from placentas. The purification procedure for the placental GnRH receptor was performed using a modification of the method described by Bramley et al., which reference is specifically incorporated herein by reference for the purpose. Addition of enzyme inhibitors for the endogenous C-ase-1 were used as well as agents for receptor stabilization. Initially, receptor-binding assays using ^125I-Buserelin as label were performed. The competitive binding of each of the analogs was studied over a dose range of 10^−11 to 10^−6 M. Incubation was at room temperature and receptor bound label was precipitated with polyethylene glycol. Specific and non-specific binding was determined. The data was subjected to Scatchard analysis. The non-mammalian GnRH analogs' ability to bind to the placental GnRH receptor was compared to that for synthetic mammalian GnRH (SEQ ID NO: 5), Buserelin (SEQ ID NO: 10) and other mammalian analogs. […] This way, the receptor affinity for that analog could be precisely determined. Receptors from three different term placentas were used to study each of these analogs. […] Bramley T A, McPhie C A, Menzies G S 1994 Human placental gonadotropin-releasing hormone (GnRH) binding sites: 111. Changes in GnRH binding levels with stage of gestation. Placenta 15:733-745.
In these and additional studies, placental GnRH receptors were purified from human term placentas after homogenization in 40 mM Tris (pH 7.4) and filtered through cheesecloth, followed by an initial centrifugation at 1,000×g for 10 minutes. The resulting supernatant was, again, centrifuged at 35,000×g for 30 minutes and the membrane pellet was collected and resuspended in Tris buffer with 0.3 M sucrose. The protein concentration was determined. Membranes were stored frozen at −20 C until use. Before use, placental membranes were diluted to 5,000 μg/mL with Tris buffer containing 0.5% BSA and 50 U/mL bacitracin. Placental membranes (100 μL) were used with varying concentrations of mammalian GnRH (SEQ ID NO: 5), Buserelin (SEQ ID NO: 10), chicken II GnRH (SEQ ID NO: 6), D-Arg (6)-chicken II GnRH-des-Gly (10)-ethylamide (SEQ ID NO: 2), or D-Arg (6)-chicken II GnRH-aza-Gly (10)-amide (SEQ ID NO: 2) (100 μL) and either radiolabeled Buserelin (SEQ ID NO: 10) or radiolabeled D-Arg (6)-chicken II GnRH-aza-Gly (10)-amide (SEQ ID NO: 2) (100 μL/tube and iodinated). Following incubation at room temperature for 4 hours, the bound and free hormones were separated using polyethylene glycol precipitation, followed by centrifugation. The binding affinity for each GnRH isoform or analog was calculated using the double reciprocal plot of bound versus free ligand. Each study was done using three different human term placental tissues.

## CC(C)C[C@H](NC(=O)CNC(=O)[C@H](Cc1ccc(O)cc1)NC(=O)[C@H](CO)NC(=O)[C@H](Cc1c[nH]c2ccccc12)NC(=O)[C@H](Cc1cnc[nH]1)NC(=O)[C@@H]1CCC(=O)N1)C(=O)N[C@@H](CCCNC(=N)N)C(=O)N1CCC[C@H]1C(=O)NCC(N)=O [mammalian GnRH]
[1]
  Ks for degradation by C-ase-1: ~30 nM
[2]
  effect on progesterone release: not affected by mammalian GnRH (SEQ ID NO: 5) in two of four placentas, but in one placenta it was significantly increased and in the other was decreased
  effect on release of hCG: no significant effect
[3]
  Kd: 1 µM
[4]
  Km: 0.01 µM
[5]
  Ks for degradation by ovarian tissues: ~30 nM
[6]
  degradation by / competition for C-ase-1, in words: actively degraded
[7]
  decrease of affinity when the analog is used as label: 1.5 times
